Earlier results in US20110020252A1, “METHOD OF LONG LASTING HUMAN SKIN TANNING” (priority 2010, published 2011).

Test system: gram-positive cocci (including methicillin-resistant Staphylococcus aureus-MSRA), some gram-negative organisms, Legionella, many mycobacterium and some fungi
Conditions: cited from earlier work

In the case of `CO[C@H]1/C=C/O[C@@]2(C)Oc3c(C)c(O)c4c(O)c(c(/C=N/N5CCN(C)CC5)c(O)c4c3C2=O)NC(=O)/C(C)=C\C=C\[C@H](C)[C@H](O)[C@@H](C)[C@@H](O)[C@@H](C)[C@H](OC(C)=O)[C@@H]1C` [Rifampin], the antimicrobial activity is given as “good activity”.
